Measured values: patent US9708336B2, “Metallo-beta-lactamase inhibitors” (priority 2014, dated 2017)
pIC50: −log10 of the molar value. Where two headings read alike, the source gives them in different places.

What was measured:
VIM-1 = VIM-1 (Pseudomonas aeruginosa (strain ATCC 15692 / DSM 22644 / CIP 104116 / JCM 14847 / LMG 12228 / 1C / PRS 101 / PAO1), UniProt A0A0F7KYQ8); assay: Enzyme activity: determination of IC50, fluorescence assay with CCF2-FA substrate (VIM-1); assay type: biochemical
Description: Enzyme Activity: Determination of IC50
(§2) The Class B enzyme activities were measured in the presence of the test inhibitor in a fluorescence assay against a commercially available substrate consisting of a cephalosporin core linking 7-hydroxycoumarin to fluorescein (CCF2-FA). The enzyme (NDM-1, IMP-1 or VIM-1) and the substrate were diluted in 100 mM KH2PO4 buffer (pH 7) containing 0.005% Tween-20 and 10 μM ZnSO4. […] The test inhibitor was dissolved in dimethylsulfoxide and diluted 1:50 in the assay, resulting in a final concentration range of 20 uM to 0.00063 uM. In a 384-well microplate, the test inhibitor was incubated with the metallo-β-lactamase enzyme and the substrate for 2 hours at 25° C. Fluorescence at 460 nm following excitation at 405 nm was measured. The IC50 value was determined from semi-logarithmic plots of enzyme inhibition versus inhibitor concentration, with a curve generated using a 4-parameter fit.

[1] = tested on: Klebsiella pneumoniae expressing VIM-1 (IHMA599644); assay: Antibiotic potentiation activity: synergistic concentration (MITC95) with imipenem, OD600 growth; assay type: cell-based; conditions: for Klebsiella pneumoniae expressing VIM-1 (IHMA 599644) MITC95: concentration giving 95% inhibition of bacterial growth
Method in brief: (§1)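 Spectrophotometric growth readings were taken following 22–24 h at 35 °C. Before that, organisms in 1.1× CAMHB were mixed with imipenem, used at 4 μg/ml in assay, and test compound.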

[2] = tested on: Escherichia coli expressing NDM-1 (CLB30016); assay: as above; assay type: cell-based; conditions: for Escherichia coli expressing NDM-1 (CLB 30016) MITC95: concentration giving 95% inhibition of bacterial growth
Method in brief: as §1

[3] = tested on: Serratia marcescens expressing IMP-1 (CL5741); assay: as above; assay type: cell-based; conditions: for Serratia marcescens expressing IMP-1 (CL5741) MITC95: concentration giving 95% inhibition of bacterial growth
Method in brief: as §1

NDM-1 = NDM-1 (Klebsiella pneumoniae, UniProt C7C422); assay: biochemical; assay type: biochemical
Chain of NDM-1 (C7C422 whole entry, looked up, species assumed): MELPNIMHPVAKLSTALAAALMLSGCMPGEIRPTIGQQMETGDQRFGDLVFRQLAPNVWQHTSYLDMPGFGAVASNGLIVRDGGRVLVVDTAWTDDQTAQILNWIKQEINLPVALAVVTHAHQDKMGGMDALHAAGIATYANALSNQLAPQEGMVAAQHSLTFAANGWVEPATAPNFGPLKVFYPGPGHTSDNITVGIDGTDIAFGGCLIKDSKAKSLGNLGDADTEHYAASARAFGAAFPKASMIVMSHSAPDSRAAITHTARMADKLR
Description: Enzyme Activity: Determination of IC50
as §2

IMP-1 = IMP-1 (Serratia marcescens, UniProt P52699); assay: biochemical; assay type: biochemical; conditions: read-out: IMP-1 IC50
Chain of IMP-1 (P52699 whole entry, looked up): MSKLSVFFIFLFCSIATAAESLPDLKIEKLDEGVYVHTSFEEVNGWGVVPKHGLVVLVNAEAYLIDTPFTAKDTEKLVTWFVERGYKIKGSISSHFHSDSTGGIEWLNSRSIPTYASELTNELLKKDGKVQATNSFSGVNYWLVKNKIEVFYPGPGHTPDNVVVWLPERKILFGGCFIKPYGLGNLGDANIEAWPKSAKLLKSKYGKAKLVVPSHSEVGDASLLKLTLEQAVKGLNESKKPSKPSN

[4] = VIM-1 enzyme, CCF2-FA fluorescence assay, read-out: VIM-1 IC50
[5] = Klebsiella pneumoniae expressing VIM-1 (IHMA599644), 95% growth inhibition
[6] = Escherichia coli expressing NDM-1 (CLB30016), 95% growth inhibition
[7] = Serratia marcescens expressing IMP-1 (CL5741), 95% growth inhibition
[8] = NDM-1 enzyme, CCF2-FA fluorescence assay, read-out: NDM-1 IC50
[9] = IMP-1 enzyme, CCF2-FA fluorescence assay
[10] = VIM-1 enzyme, CCF2-FA substrate, read-out: VIM-1 IC50
[11] = Klebsiella pneumoniae IHMA599644 (VIM-1), 95% growth inhibition
[12] = (CLB30016, NDM-1), 95% growth inhibition
[13] = Serratia marcescens CL5741 (IMP-1), 95% growth inhibition
[14] = NDM-1 enzyme, CCF2-FA substrate, read-out: NDM-1 IC50
[15] = IMP-1 enzyme, CCF2-FA substrate
[16] = IHMA599644 (VIM-1), 95% inhibition of bacterial growth
[17] = CLB30016 (NDM-1), 95% inhibition of bacterial growth
[18] = CL5741 (IMP-1), 95% inhibition of bacterial growth
[19] = fluorescence assay with CCF2-FA substrate, read-out: NDM-1 IC50
[20] = fluorescence assay with CCF2-FA substrate
[21] = fluorescence assay with CCF2-FA substrate, read-out: VIM-1 IC50

Compound: Nc1n[nH]c2cc(-c3ccc(C(F)(F)F)c(S(N)(=O)=O)c3-c3nnn[nH]3)ccc12 [Example 477, 3-(3-amino-1H-indazol-6-yl)-2-(1H-tetrazol-5-yl)-6-(trifluoromethyl)benzenesulfonamide]
- pIC50 (VIM-1; [4]): 9.14
- Klebsiella pneumoniae MITC95 [1, 5]: 6.25 µM
- Escherichia coli MITC95 [2, 6]: 0.7813 µM
- Serratia marcescens MITC95 [3, 7]: 0.5859 µM
- pIC50 (NDM-1; [8]): 9.00
- pIC50 (IMP-1; [9]): 8.20

Compound: NS(=O)(=O)c1cccc(-c2ccc(CN3CCC(CCO)C3)cc2)c1-c1nnn[nH]1 (stereo not drawn) [Example 393, 4′-{[3-(2-hydroxyethyl)pyrrolidin-1-yl]methyl}-2-(1H-tetrazol-5-yl)biphenyl-3-sulfonamide]
- pIC50 (VIM-1; [4]): 6.29
- Klebsiella pneumoniae MITC95 [1, 5]: 200 µM
- Escherichia coli MITC95 [2, 6]: 1.563 µM
- Serratia marcescens MITC95 [3, 7]: 4.688 µM
- pIC50 (NDM-1; [8]): 7.97
- pIC50 (IMP-1; [9]): 6.47

Compound: NS(=O)(=O)c1c(C(F)(F)F)ccc([C@H]2CC[C@H](NC3CCNC3)CC2)c1-c1nnn[nH]1 (stereo partly drawn) [Example 696, 3-[4-(pyrrolidin-3-ylamino)cyclohexyl]-2-(1H-tetrazol-5-yl)-6-(trifluoromethyl)benzene sulfonamide]
- pIC50 (VIM-1; [10]): 8.62
- Klebsiella pneumoniae MITC95 [1, 11]: 3.125 µM
- Escherichia coli MITC95 [2, 12]: 0.3906 µM
- Serratia marcescens MITC95 [3, 13]: 1.563 µM
- pIC50 (NDM-1; [14]): 8.96
- pIC50 (IMP-1; [15]): 8.28

Compound: CC1(C)CCN(Cc2ccc(-c3cccc(S(N)(=O)=O)c3-c3nnn[nH]3)cc2)C1 [Example 346, 4′-[(3,3-dimethylpyrrolidin-1-yl)methyl]-2-(1H-tetrazol-5-yl)biphenyl-3-sulfonamide]
- pIC50 (VIM-1; [4]): 6.39
- Klebsiella pneumoniae MITC95 [1, 5]: 150 µM
- Escherichia coli MITC95 [2, 6]: 1.563 µM
- Serratia marcescens MITC95 [3, 7]: 2.344 µM
- pIC50 (NDM-1; [8]): 7.93
- pIC50 (IMP-1; [9]): 6.63

Compound: N=C(N)N1CC(c2ccc(-c3ccc(CC4CCNCC4)c(S(N)(=O)=O)c3-c3nn[nH]n3)cc2)C1 [Example 603, 3-[4-[4-(4-piperidylmethyl)-3-sulfamoyl-2-(2H-tetrazol-5-yl)phenyl]phenyl]azetidine-1-carboxamidine]
- pIC50 (VIM-1; [10]): 8.33
- Klebsiella pneumoniae MITC95 [1, 11]: 1.563 µM
- Escherichia coli MITC95 [2, 12]: 3.125 µM
- Serratia marcescens MITC95 [3, 13]: 1.563 µM
- pIC50 (NDM-1; [14]): 7.67
- pIC50 (IMP-1; [15]): 7.50

Compound: Cc1ccncc1-c1ccc(C(F)(F)F)c(S(N)(=O)=O)c1-c1nnn[nH]1 [Example 747, 3-(4-methylpyridin-3-yl)-2-(1H-tetrazol-5-yl)-6-(trifluoromethyl)benzenesulfon-amide]
- pIC50 (VIM-1; VIM-1 IC50, fluorescence assay with CCF2-FA substrate): 9.06
- Klebsiella pneumoniae MITC95 [1, 16]: 12.5 µM
- Escherichia coli MITC95 [2, 17]: 6.25 µM
- Serratia marcescens MITC95 [3, 18]: 25 µM
- pIC50 (NDM-1; [19]): 8.24
- pIC50 (IMP-1; [20]): 7.95

Compound: CCN1CCC(NCc2ccc(-c3cccc(S(N)(=O)=O)c3-c3nnn[nH]3)cc2)CC1 [Example 352, 4′-{[(1-ethylpiperidin-4-yl)amino]methyl}-2-(1H-tetrazol-5-yl)biphenyl-3-sulfonamide]
- pIC50 (VIM-1; [4]): 6.04
- Klebsiella pneumoniae MITC95 [1, 5]: >200 µM
- Escherichia coli MITC95 [2, 6]: 1.563 µM
- Serratia marcescens MITC95 [3, 7]: 6.25 µM
- pIC50 (NDM-1; [8]): 7.42
- pIC50 (IMP-1; [9]): 6.26

Compound: CNCCN1CCC(c2ccc(-c3ccc(C(F)(F)F)c(S(N)(=O)=O)c3-c3nnn[nH]3)cc2)CC1 [Example 674, 4′-{1-[2-(methylamino)ethyl]piperi-din-4-yl}-2-(1H-tetrazol-5-yl)-4-(trifluoromethyl)biphenyl-3-sulfonamide]
- pIC50 (VIM-1; [10]): 7.76
- Klebsiella pneumoniae MITC95 [1, 11]: 75 µM
- Escherichia coli MITC95 [2, 12]: 3.125 µM
- Serratia marcescens MITC95 [3, 13]: 6.25 µM
- pIC50 (NDM-1; [14]): 8.18
- pIC50 (IMP-1; [15]): 8.61

Compound: CC(C)c1cccc(S(N)(=O)=O)c1-c1nnn[nH]1 [Example 156, 3-isopropyl-2-(1H-tetrazol-5-yl)benzenesulfonamide]
- pIC50 (VIM-1; [21]): 6.41
- Klebsiella pneumoniae expressing VIM-1 (IHMA 599644) MITC95 [1]: 50 µM
- Escherichia coli expressing NDM-1 (CLB 30016) MITC95 [2]: 0.5859 µM
- Serratia marcescens expressing IMP-1 (CL5741) MITC95 [3]: 9.375 µM
- pIC50 (NDM-1; [19]): 7.88
- pIC50 (IMP-1; [20]): 6.29

Compound: Nc1ccc(-c2ccc(CC[C@H]3CC[C@H](N)CC3)c(S(N)(=O)=O)c2-c2nnn[nH]2)cn1 [Example 577, 6-(2-((1r,4s)-4-aminocyclohexyl)ethyl)-3-(6-aminopyridin-3-yl)-2-(1H-tetrazol-5-yl)benzenesulfonamide]
- pIC50 (VIM-1; [10]): 7.98
- Klebsiella pneumoniae MITC95 [1, 11]: 12.5 µM
- Escherichia coli MITC95 [2, 12]: 0.7813 µM
- Serratia marcescens MITC95 [3, 13]: 3.125 µM
- pIC50 (NDM-1; [14]): 8.61
- pIC50 (IMP-1; [15]): 7.53

Compound: Nc1nc2c(-c3ccc(CCCCCO)c(S(N)(=O)=O)c3-c3nn[nH]n3)cccc2s1 [Example 534, 3-(2-Aminobenzo[d]thiazol-4-yl)-6-(5-hydroxypentyl)-2-(2H-tetrazol-5-yl)benzenesulfonamide]
- pIC50 (VIM-1; [10]): 9.07
- Klebsiella pneumoniae MITC95 [1, 11]: 12.5 µM
- Escherichia coli MITC95 [2, 12]: 6.25 µM
- Serratia marcescens MITC95 [3, 13]: 25 µM
- pIC50 (NDM-1; [14]): 9.35
- pIC50 (IMP-1; [15]): 8.02

Compound: Nc1nc2cccc(-c3ccc(C(F)(F)F)c(S(N)(=O)=O)c3-c3nnn[nH]3)c2[nH]1 [Example 551, 3-(2-amino-3H-benzimidazol-4-yl)-2-(1H-tetrazol-5-yl)-6-(trifluoromethyl)benzenesulfonamide]
- pIC50 (VIM-1; [10]): 9.58
- Klebsiella pneumoniae MITC95 [1, 11]: 1.563 µM
- Escherichia coli MITC95 [2, 12]: 0.3906 µM
- Serratia marcescens MITC95 [3, 13]: 0.7813 µM
- pIC50 (NDM-1; [14]): 9.85
- pIC50 (IMP-1; [15]): 8.42

Compound: NS(=O)(=O)c1cccc(-c2ccc(CNCC(=O)NO)cc2)c1-c1nnn[nH]1 [Example 330, N-hydroxy-2-(((3′-sulfamoyl-2′-(1H-tetrazol-5-yl)-[1,1′-biphenyl]-4-yl)methyl)amino)acetamide]
- pIC50 (VIM-1; [4]): 6.40
- Klebsiella pneumoniae MITC95 [1, 5]: 50 µM
- Escherichia coli MITC95 [2, 6]: 1.563 µM
- Serratia marcescens MITC95 [3, 7]: 4.688 µM
- pIC50 (NDM-1; [8]): 7.90
- pIC50 (IMP-1; [9]): 6.93

Compound: N=C(N)NC[C@H]1CC[C@@H](c2ccc(C(F)(F)F)c(S(N)(=O)=O)c2-c2nnn[nH]2)CC1 [Example 502, 3-(cis 4-(guanidinomethyl)cyclohexyl)-2-(1H-tetrazol-5-yl)-6-(trifluoromethyl)benzenesulfonamide]
- pIC50 (VIM-1; [10]): 8.84
- Klebsiella pneumoniae MITC95 [1, 11]: 9.375 µM
- Escherichia coli MITC95 [2, 12]: 1.563 µM
- Serratia marcescens MITC95 [3, 13]: 1.563 µM
- pIC50 (NDM-1): 9.28
- pIC50 (IMP-1; [15]): 8.93

Compound: NCC1CCC(N[C@H]2CC[C@H](c3ccc(C(F)(F)F)c(S(N)(=O)=O)c3-c3nnn[nH]3)CC2)CC1 (stereo partly drawn) [Example 699, 3-(4-{[4-(aminomethyl)cyclohexyl]amino}cyclohexyl)-2-(1H-tetrazol-5-yl)-6-(trifluoromethyl)benzene sulfonamide]
- pIC50 (VIM-1; [10]): 8.33
- Klebsiella pneumoniae MITC95 [1, 11]: 6.25 µM
- Escherichia coli MITC95 [2, 12]: 3.125 µM
- Serratia marcescens MITC95 [3, 13]: 6.25 µM
- pIC50 (NDM-1; [14]): 7.74
- pIC50 (IMP-1; [15]): 7.23

Compound: CC(C)Cc1cccc(S(N)(=O)=O)c1-c1nn[nH]n1 [Example 167, 3-isobutyl-2-(2H-tetrazol-5-yl)benzenesulfonamide]
- pIC50 (VIM-1; [21]): 5.99
- Klebsiella pneumoniae expressing VIM-1 (IHMA 599644) MITC95 [1]: 200 µM
- Escherichia coli expressing NDM-1 (CLB 30016) MITC95 [2]: 1.563 µM
- Serratia marcescens expressing IMP-1 (CL5741) MITC95 [3]: 9.375 µM
- pIC50 (NDM-1; [19]): 7.91
- pIC50 (IMP-1; [20]): 6.58

Compound: Nc1nc2c(-c3cccc(S(N)(=O)=O)c3-c3nnn[nH]3)cccc2s1 [Example 134, 3-(2-aminobenzo[d]thiazol-4-yl)-2-(1H-tetrazol-5-yl)benzenesulfonamide]
- pIC50 (VIM-1; [21]): 7.96
- Klebsiella pneumoniae expressing VIM-1 (IHMA 599644) MITC95 [1]: 3.125 µM
- Escherichia coli expressing NDM-1 (CLB 30016) MITC95 [2]: 0.5859 µM
- Serratia marcescens expressing IMP-1 (CL5741) MITC95 [3]: 0.7813 µM
- pIC50 (NDM-1; [19]): 9.55
- pIC50 (IMP-1; [20]): 7.65

Compound: Nc1ccc(-c2ccc(CC3CCNCC3)c(S(N)(=O)=O)c2-c2nnn[nH]2)cn1 [Example 576, 3-(6-amino-3-pyridyl)-6-(4-piperidylmethyl)-2-(1H-tetrazol-5-yl)benzenesulfonamide]
- pIC50 (VIM-1; VIM-1 IC50, VIM-1 enzyme, CCF2-FA substrate): 7.61
- Klebsiella pneumoniae MITC95 [1, 11]: 4.24 µM
- Escherichia coli MITC95 [2, 12]: 0.5969 µM
- Serratia marcescens MITC95 [3, 13]: 6.323 µM
- pIC50 (NDM-1; [14]): 7.91
- pIC50 (IMP-1; [15]): 6.78

Compound: Nc1nc2c(F)cc(-c3ccc(C(F)(F)F)c(S(N)(=O)=O)c3-c3nnn[nH]3)cc2s1 [Example 743, 3-(2-amino-4-fluoro-1,3-benzothiazol-6-yl)-2-(1H-tetrazol-5-yl)-6-(trifluoromethyl)benzenesulfon-amide]
- pIC50 (VIM-1; [21]): 9.83
- Klebsiella pneumoniae MITC95 [1, 16]: 6.25 µM
- Escherichia coli MITC95 [2, 17]: 3.125 µM
- Serratia marcescens MITC95 [3, 18]: 6.25 µM
- pIC50 (NDM-1; [19]): 9.39
- pIC50 (IMP-1; [20]): 9.05
